The target in one series is Y470H-hDAT (Homo sapiens, UniProt Q01959, Y470H). Nature of the series: Basal substrate efflux assay, CHO cells with Y470H-hDAT. The class given is cell-based.
In series [1] the target is T1, Y470F-hDAT (Homo sapiens, UniProt Q01959, Y470F). Kind of series: Basal substrate efflux assay, CHO cells with Y470F-hDAT. The format is cell-based.
The target in series [2] is T2, WT hDAT (Homo sapiens, UniProt Q01959). Nature of the series: Basal substrate efflux assay, CHO cells with WT hDAT. To be noted: preloading [3H]MPP+ 5 nM, 30 min. The class given is cell-based.
Series [3] deals with T3, Y88F-hDAT (Homo sapiens, UniProt Q01959, Y88F). Nature of the series: Basal substrate efflux assay, CHO cells with Y88F-hDAT. The format is cell-based.
Series [4] addresses T4, Y470A-hDAT (Homo sapiens, UniProt Q01959, Y470A). Kind of series: Basal substrate efflux assay, CHO cells with Y470A-hDAT. The class given is cell-based.
Series [5] has as its target T5, K92M-hDAT (Homo sapiens, UniProt Q01959, K92M). Nature of the series: Basal substrate efflux assay, CHO cells with K92M-hDAT. The class given is cell-based.
Series [6] deals with T4, Y470A-hDAT. The class given is cell-based.
Series [7] addresses T1, Y470F-hDAT. The class given is cell-based.
Series [8] addresses T3, Y88F-hDAT. The class given is cell-based.
The target in series [9] is T5, K92M-hDAT. The class given is cell-based.
Series [10] deals with T1, Y470F-hDAT. Kind of series: [3H]WIN 35,428 binding assay, Y470F-hDAT. To be noted: ZnCl2 10 µM, CHO cells.
The target of series [11] is T3, Y88F-hDAT. Nature of the series: [3H]WIN 35,428 binding assay, Y88F-hDAT. The conditions noted are these: ZnCl2 10 µM, CHO cells.
In series [12] the target is T2, WT hDAT. Nature of the series: [3H]WIN 35,428 binding assay, WT hDAT. The conditions noted are these: ZnCl2 10 µM, CHO cells.
Series [13] addresses T5, K92M-hDAT. Kind of series: [3H]WIN 35,428 binding assay, K92M-hDAT. The conditions noted are these: ZnCl2 10 µM, CHO cells.
Series [14] has as its target T2, WT hDAT. The format is cell-based. To be noted: ZnCl2 10 µM, CHO cells.
The target in series [15] is T4, Y470A-hDAT. Kind of series: [3H]WIN 35,428 binding assay, Y470A-hDAT. To be noted: ZnCl2 10 µM, CHO cells.
The mark [16] stands for this setting: preloading [3H]MPP+ 5 nM, 30 min, CHO cells.
[17] abbreviates: preloading 0.05 µM [3H]DA, 20 min, CHO cells.
The mark [18] stands for this setting: transfected PC12 cells (Fig. 4 legend: CHO), room temperature, 8 min.

Each structure is given as a SMILES string. Several values for one entry are separate records, joined by “and”; a condition that tells them apart may be missing. Identical values can stand only once.

T4 sequence (Q01959 whole entry Y470A): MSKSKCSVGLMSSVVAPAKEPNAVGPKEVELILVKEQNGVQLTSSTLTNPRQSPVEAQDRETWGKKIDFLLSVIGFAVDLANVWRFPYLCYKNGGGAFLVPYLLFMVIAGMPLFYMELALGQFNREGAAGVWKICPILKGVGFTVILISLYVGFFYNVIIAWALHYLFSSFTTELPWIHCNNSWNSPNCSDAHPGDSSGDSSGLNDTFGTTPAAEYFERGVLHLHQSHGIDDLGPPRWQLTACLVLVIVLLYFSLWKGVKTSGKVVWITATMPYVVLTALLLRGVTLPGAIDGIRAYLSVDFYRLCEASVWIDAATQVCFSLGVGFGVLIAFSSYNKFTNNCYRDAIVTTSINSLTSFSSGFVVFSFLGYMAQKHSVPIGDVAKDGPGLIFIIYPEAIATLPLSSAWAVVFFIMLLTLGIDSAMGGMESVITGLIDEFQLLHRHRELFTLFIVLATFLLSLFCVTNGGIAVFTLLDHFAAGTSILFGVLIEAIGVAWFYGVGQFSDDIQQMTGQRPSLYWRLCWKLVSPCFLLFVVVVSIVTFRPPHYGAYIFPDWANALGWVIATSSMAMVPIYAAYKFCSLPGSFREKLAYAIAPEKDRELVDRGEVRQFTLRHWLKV
T2 sequence (Q01959 whole entry): as the sequence (Q01959 whole entry Y470A) above, with A470Y counted along it
T1 sequence (Q01959 whole entry Y470F): as the sequence (Q01959 whole entry Y470A) above, with A470F counted along it
T3 sequence (Q01959 whole entry Y88F): as the sequence (Q01959 whole entry Y470A) above, with Y88F, A470Y counted along it
Sequence of Y470H-hDAT (Q01959 whole entry Y470H): as the sequence (Q01959 whole entry Y470A) above, with A470H counted along it
T5 sequence (Q01959 whole entry K92M): as the sequence (Q01959 whole entry Y470A) above, with K92M, A470Y counted along it

For the compound `C[n+]1ccc(-c2ccccc2)cc1` [MPP^+, 1-methyl-4-phenylpyridinium], the “total [3H]MPP+ in the cells at the start of the efflux experiment” value on Y470H-hDAT (setting [16]) is 602 ± 28 dpm; on Y470F-hDAT [1] (setting [16]), 7399 ± 359 dpm; on WT hDAT [2], 12120 ± 397 dpm and 15516 ± 920 dpm; at Y88F-hDAT [3] (setting [16]) it was 5695 ± 450 dpm; at Y470A-hDAT [4] (setting [16]), 460 ± 46 dpm; on K92M-hDAT [5] (setting [16]) it was 967 ± 121 dpm. Further, the “basal MPP+ efflux compared to WT hDAT” value on Y470F-hDAT [1] was “no effect”. Besides, the figures for the “basal fractional [3H]MPP+ efflux compared to WT hDAT” value on Y88F-hDAT [3] (at all time points), at Y470A-hDAT [4] (at all time points) and on K92M-hDAT [5] (at all time points) were “did not alter”, “elevated” and “did not alter”, respectively.

In the case of `NCCc1ccc(O)c(O)c1` [DA, dopamine], the “basal fractional [3H]DA efflux compared to WT hDAT” value at Y470H-hDAT (at 1, 10, 20 min) was “elevated”; at Y470A-hDAT [4] (at 1 and 10 min) it was “elevated”; on K92M-hDAT [5] (at 1 and 10 min) it was “elevated”. In addition, the “total [3H]DA in the cells at the start of the efflux experiment” value is reported as 2488 ± 150 dpm on Y470H-hDAT (setting [17]); 20908 ± 4209 dpm on Y470F-hDAT [1] (setting [17]); 41805 ± 6887 dpm at Y88F-hDAT [3] (setting [17]); 1158 ± 123 dpm at Y470A-hDAT [4] (setting [17]); 9655 ± 2160 dpm at K92M-hDAT [5] (setting [17]). Besides, the entries for the “Vmax of [3H]DA uptake” value on Y470A-hDAT [6] (transfected PC12 cells), on Y88F-hDAT [8] (setting [18]) and on K92M-hDAT [9] (setting [18]) were 1.2 ± 0.2 pmol/min/10^5 cells, 14.8 ± 3.7 pmol/min/10^5 cells and 4.5 ± 1.7 pmol/min/10^5 cells, respectively. At Y470F-hDAT [1], the “basal DA efflux compared to WT hDAT” value is reported as “no effect”. Besides, the “Km of [3H]DA uptake compared to WT hDAT” value on Y470F-hDAT [7] (transfected PC12 cells) is “did not alter”. For the same compound, the “Vmax of [3H]DA uptake compared to WT hDAT” value on Y470F-hDAT [7] (transfected PC12 cells) was “did not alter”.

In the case of `[Cl-].[Cl-].[Zn+2]` [Zn^2+, ZnCl2], the “effect of Zn2+ on [3H]WIN 35,428 binding” value at Y470F-hDAT [10] was “but not in Y470F-hDAT and Y470A-hDAT”; on Y88F-hDAT [11], “did not significantly alter”; on K92M-hDAT [13] it was “did not significantly alter”; at Y470A-hDAT [15] it was “but not in Y470F-hDAT and Y470A-hDAT”. On WT hDAT [12], the “increase of [3H]WIN 35,428 binding by Zn2+ relative to control” value was 48% and 54%. The “decrease of [3H]DA uptake by Zn2+ relative to control” value was 72% on Y470A-hDAT [6] (ZnCl2 10 µM, CHO cells); 49% at Y470F-hDAT [7] (ZnCl2 10 µM, CHO cells); 47% and 48% at WT hDAT [14]; 73% on Y88F-hDAT [8] (ZnCl2 10 µM, CHO cells); 81% on K92M-hDAT [9] (ZnCl2 10 µM, CHO cells).

The record behind these values is paper PMC4388869 (Journal of neuroimmune pharmacology : the official journal …, 2015).
